In ChEMBL document CHEMBL1137565, “Discovery of novel 8-azoniabicyclo[3.2.1]octane carbamates as muscarinic acetylcholine receptor antagonists” (Bioorg Med Chem Lett, 2007):

Experiments:
[1] = target: T1, Muscarinic acetylcholine receptor M2 (Homo sapiens, UniProt P08172); test: Antagonist activity at cloned muscarinic M2 receptor expressed in CHO cells by measuring calcium mobilization; format: functional, cell-based
T1 sequence (P08172 whole entry): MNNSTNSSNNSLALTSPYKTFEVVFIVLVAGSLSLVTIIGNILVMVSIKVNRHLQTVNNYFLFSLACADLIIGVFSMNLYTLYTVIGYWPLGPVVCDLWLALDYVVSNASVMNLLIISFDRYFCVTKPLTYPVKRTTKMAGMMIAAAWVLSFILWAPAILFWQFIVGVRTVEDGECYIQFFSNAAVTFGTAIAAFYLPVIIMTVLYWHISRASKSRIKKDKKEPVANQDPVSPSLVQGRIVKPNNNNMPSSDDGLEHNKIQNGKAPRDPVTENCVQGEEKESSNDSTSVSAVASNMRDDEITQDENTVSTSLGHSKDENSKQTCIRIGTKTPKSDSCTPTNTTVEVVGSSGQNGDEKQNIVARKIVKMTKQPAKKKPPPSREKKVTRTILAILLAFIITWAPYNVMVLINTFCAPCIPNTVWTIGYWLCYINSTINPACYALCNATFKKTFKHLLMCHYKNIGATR

[2] = target: T2, Muscarinic acetylcholine receptor M1 (Homo sapiens, UniProt P11229); test: Antagonist activity at cloned muscarinic M1 receptor expressed in CHO cells by measuring calcium mobilization; format: functional, cell-based
T2 sequence (P11229 whole entry): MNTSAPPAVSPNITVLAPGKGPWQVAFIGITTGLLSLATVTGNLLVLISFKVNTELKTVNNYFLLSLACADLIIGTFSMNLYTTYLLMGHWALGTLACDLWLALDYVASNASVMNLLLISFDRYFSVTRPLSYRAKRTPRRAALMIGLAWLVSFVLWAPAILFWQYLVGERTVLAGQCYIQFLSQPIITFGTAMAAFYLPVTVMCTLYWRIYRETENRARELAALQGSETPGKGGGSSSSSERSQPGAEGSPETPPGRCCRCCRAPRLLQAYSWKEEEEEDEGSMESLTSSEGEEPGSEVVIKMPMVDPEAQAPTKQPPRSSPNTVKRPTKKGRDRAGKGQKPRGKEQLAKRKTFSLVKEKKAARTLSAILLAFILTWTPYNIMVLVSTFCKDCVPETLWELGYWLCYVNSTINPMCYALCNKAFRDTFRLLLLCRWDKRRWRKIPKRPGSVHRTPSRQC

[3] = target: Muscarinic acetylcholine receptor M3 (Homo sapiens, UniProt P20309); test: Antagonist activity at cloned muscarinic M3 receptor expressed in CHO cells by measuring calcium mobilization; format: functional, cell-based
Sequence of Muscarinic acetylcholine receptor M3 (P20309 whole entry): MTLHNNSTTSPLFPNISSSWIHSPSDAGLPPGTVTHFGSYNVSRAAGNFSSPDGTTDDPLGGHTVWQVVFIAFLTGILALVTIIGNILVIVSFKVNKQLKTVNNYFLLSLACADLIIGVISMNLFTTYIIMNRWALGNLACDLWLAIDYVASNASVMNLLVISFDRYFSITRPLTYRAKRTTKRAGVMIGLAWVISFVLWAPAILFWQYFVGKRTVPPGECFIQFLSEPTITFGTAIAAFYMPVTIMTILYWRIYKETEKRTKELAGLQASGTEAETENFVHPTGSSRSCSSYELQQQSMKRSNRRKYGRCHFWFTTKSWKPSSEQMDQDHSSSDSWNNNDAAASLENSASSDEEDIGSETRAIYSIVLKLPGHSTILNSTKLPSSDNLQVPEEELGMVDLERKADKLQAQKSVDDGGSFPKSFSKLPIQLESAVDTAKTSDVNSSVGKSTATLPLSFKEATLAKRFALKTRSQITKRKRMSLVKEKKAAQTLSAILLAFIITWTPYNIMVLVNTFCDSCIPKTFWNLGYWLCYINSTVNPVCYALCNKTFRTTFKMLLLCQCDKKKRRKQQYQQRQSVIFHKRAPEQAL

[4] = target: Muscarinic acetylcholine receptor M1 and M3 (Homo sapiens) (UniProt P20309+P11229); test: Selectivity for cloned muscarinic M3 receptor over cloned muscarinic M1 receptor
Sequence of Muscarinic acetylcholine receptor M1 and M3 (Homo sapiens) (P20309 whole entry, looked up, one chain of several): as the sequence (P20309 whole entry) above

[5] = target: Muscarinic acetylcholine receptors; M2 & M3 (Homo sapiens) (UniProt P20309+P08172); test: Selectivity for cloned muscarinic M3 receptor over cloned muscarinic M2 receptor
Mus musculus [6] = species: Mus musculus; test: Effect on metacholine-induced bronchoconstriction in mouse assessed as bronchoprotection at 5 ug after 15 mins; format: functional
Mus musculus [7] = species: Mus musculus; test: Effect on metacholine-induced bronchoconstriction in mouse assessed as bronchoprotection at 5 ug after 5 hrs; format: functional

| Compound | IC50 [1] [nM] | IC50 [2] [nM] | IC50 [3] [nM] | Ratio IC50 [4] | Ratio IC50 [5] | Activity (Mus musculus [6]) [%] | Activity (Mus musculus [7]) [%] |
| --- | --- | --- | --- | --- | --- | --- | --- |
| C[N+]1(C)[C@@H]2CC[C@H]1C[C@@H](OC(=O)N(Cc1cccc(C#N)c1)c1ccsc1)C2 | 638 | 55.6 | 137 | 0.4 | 4.7 |  |  |
| C[N+]1(C)[C@@H]2CC[C@H]1C[C@H](OC(=O)N(Cc1ccc(Br)cc1)c1ccccc1)C2 | 400 | 33.4 | 56.6 | 0.6 | 7.1 |  |  |
| C[N+]1(C)[C@@H]2CC[C@H]1C[C@@H](OC(=O)N(Cc1ccsc1)c1ccccc1)C2.[Br-] | 30.2 | 2.6 | 2.8 | 0.9 | 10.8 | 85 |  |
| Cc1ccsc1CN(C(=O)O[C@H]1C[C@H]2CC[C@@H](C1)N2C)c1ccccc1 | 191 | 117 | 108 | 1.1 | 1.8 |  |  |
| C[N+]1(C)[C@@H]2CC[C@H]1C[C@@H](OC(=O)N(Cc1ccsc1)c1ccsc1)C2.[Br-] | 7.2 | 1.6 | 1 | 1.6 | 7.2 | 85 |  |
| COc1ccc(CN(C(=O)O[C@H]2C[C@H]3CC[C@@H](C2)[N+]3(C)C)c2ccccc2)cc1 | 688 | 86 | 154 | 0.6 | 4.4 |  |  |
| COc1ccc(CN(C(=O)O[C@H]2C[C@H]3CC[C@@H](C2)N3C)c2ccccc2)cc1 | 1360 | 734 | 776 | 0.9 | 1.8 |  |  |
| C[N+]1(C)[C@@H]2CC[C@H]1C[C@H](OC(=O)N(Cc1ccccc1Br)c1ccccc1)C2 | 666 | 420 | 407 | 1 | 1.6 |  |  |
| Cc1ccoc1CN(C(=O)O[C@H]1C[C@H]2CC[C@@H](C1)[N+]2(C)C)c1ccccc1 | 229 | 15.2 | 42.3 | 0.4 | 5.4 |  |  |
| CN1[C@@H]2CC[C@H]1C[C@@H](OC(=O)N(Cc1ccc(C#N)cc1)c1ccsc1)C2 | 363 | 75.8 | 137 | 0.6 | 2.6 |  |  |
| C[N+]1(C)[C@@H]2CC[C@H]1C[C@H](OC(=O)N(CC1CCCCC1)c1ccsc1)C2 | 55.9 | 5.8 | 11.3 | 0.5 | 5 |  |  |
| Cc1ccc(CN(C(=O)O[C@@H]2C[C@H]3CC[C@@H](C2)[N+]3(C)C)c2ccccc2)s1 | 60.8 | 15.8 | 21.2 | 0.8 | 2.9 |  |  |
| C[N+]1(C)[C@@H]2CC[C@H]1C[C@H](OC(=O)N(Cc1ccccc1)c1ccccc1)C2.[Br-] | 48 | 4.5 | 4.6 | 1 | 10.4 | 85 |  |
| CN1[C@@H]2CC[C@H]1C[C@H](OC(=O)N(Cc1ccccc1)c1ccsc1)C2 | 39.1 | 19.1 | 10.9 | 1.7 | 3.6 |  |  |
| CN1[C@@H]2CC[C@H]1C[C@@H](OC(=O)N(Cc1ccccc1Br)c1ccccc1)C2 | 1400 | 1390 | 1140 | 1.2 | 1.2 |  |  |
| CN1[C@@H]2CC[C@H]1C[C@H](OC(=O)N(Cc1ccc(Br)cc1)c1ccccc1)C2 | 1420 | 813 | 721 | 1.1 | 2 |  |  |
| C[N+]1(C)[C@@H]2CC[C@H]1C[C@H](OC(=O)N(Cc1cccc(Br)c1)c1ccccc1)C2 | 520 | 210 | 342 | 0.6 | 1.5 |  |  |
| CN1[C@@H]2CC[C@H]1C[C@H](OC(=O)N(Cc1ccoc1)c1ccccc1)C2 | 82.5 | 84.5 | 57.3 | 1.5 | 1.4 |  |  |

| Compound | IC50 [1] [nM] | IC50 [2] [nM] | IC50 [3] [nM] | Ratio IC50 [4] | Ratio IC50 [5] | Activity (Mus musculus [6]) [%] | Activity (Mus musculus [7]) [%] |
| --- | --- | --- | --- | --- | --- | --- | --- |
| CN1[C@@H]2CC[C@H]1C[C@@H](OC(=O)N(CC1CCCCC1)c1ccsc1)C2 | 271 | 126 | 109 | 1.1 | 2.5 |  |  |
| CN1[C@@H]2CC[C@H]1C[C@H](OC(=O)N(Cc1cccs1)c1ccccc1)C2 | 38.2 | 48.3 | 20.3 | 2.4 | 1.9 |  |  |
| CN1[C@@H]2CC[C@H]1C[C@H](OC(=O)N(Cc1ccccc1)c1cccs1)C2 | 26.5 | 45.1 | 22.9 | 2 | 1.2 |  |  |
| C[N+]1(C)[C@@H]2CC[C@H]1C[C@H](OC(=O)N(Cc1cccs1)c1ccccc1)C2.[Br-] | 12.5 | 2.4 | 2.3 | 1 | 5.4 | 85 |  |
| C[N+]1(C)[C@@H]2CC[C@H]1C[C@@H](OC(=O)N(Cc1ccc(C#N)cc1)c1ccccc1)C2 | 1490 | 258 | 714 | 0.4 | 2.1 |  |  |
| Cc1ccsc1CN(C(=O)O[C@H]1C[C@H]2CC[C@@H](C1)[N+]2(C)C)c1ccccc1 | 34.7 | 3.8 | 6.4 | 0.6 | 5.4 |  |  |
| Cc1ccc(CN(C(=O)O[C@@H]2C[C@H]3CC[C@@H](C2)N3C)c2ccccc2)s1 | 410 | 518 | 262 | 2 | 0.4 |  |  |
| COc1cccc(CN(C(=O)O[C@@H]2C[C@H]3CC[C@@H](C2)N3C)c2ccccc2)c1 | 1170 | 1210 | 2140 | 0.6 | 0.5 |  |  |
| CN1[C@@H]2CC[C@H]1C[C@@H](OC(=O)N(Cc1ccc(C#N)cc1)c1ccccc1)C2 | 1350 | 847 | 1160 | 0.7 | 1.1 |  |  |
| COc1cccc(CN(C(=O)O[C@@H]2C[C@H]3CC[C@@H](C2)[N+]3(C)C)c2ccccc2)c1 | 1000 | 612 | 972 | 0.6 | 1 |  |  |
| Cc1ccoc1CN(C(=O)O[C@@H]1C[C@H]2CC[C@@H](C1)N2C)c1ccccc1 | 468 | 349 | 428 | 0.8 | 1.1 |  |  |
| CN1[C@@H]2CC[C@H]1C[C@@H](OC(=O)N(Cc1ccsc1)c1ccccc1)C2 | 90.7 | 73.8 | 27.5 | 2.7 | 3.3 |  |  |
| C[N+]1(C)[C@@H]2CC[C@H]1C[C@H](OC(=O)N(Cc1ccccc1)c1cccs1)C2.[Br-] | 13.8 | 2.7 | 3 | 0.2 | 5.7 | 85 | 80 |
| CN1[C@@H]2CC[C@H]1C[C@H](OC(=O)N(Cc1ccccc1)c1ccccc1)C2 | 254 | 161 | 74.5 | 2.2 | 3.4 |  |  |
| C[N+]1(C)[C@@H]2CC[C@H]1C[C@H](OC(=O)N(Cc1ccoc1)c1ccccc1)C2 | 53.7 | 12.2 | 16 | 0.8 | 3.4 |  |  |
| CN1[C@@H]2CC[C@H]1C[C@@H](OC(=O)N(Cc1cccc(Br)c1)c1ccccc1)C2 | 2160 | 1960 | 2310 | 0.9 | 0.9 |  |  |
| CN1[C@@H]2CC[C@H]1C[C@H](OC(=O)N(Cc1ccsc1)c1ccsc1)C2 | 19.6 | 13.8 | 7.2 | 1.9 | 2.7 |  |  |
